pKi: −log10 of the molar value.
Legend:
Mu-type opioid receptor = Mu-type opioid receptor (Mus musculus, UniProt P42866); experiment: Displacement of [3H]DAMGO from mu opioid receptor in mouse cerebellum
[1] = molecular target: Delta-type opioid receptor (Mus musculus, UniProt P32300); experiment: Displacement of [3H]DPDPE from delta opioid receptor in mouse cerebellum
[2] = molecular target: Kappa-type opioid receptor (Cavia porcellus, UniProt P41144); experiment: Displacement of [3H]U-69,593 from kappa opioid receptor in guinea pig cerebellum
[3] = Selectivity ratio of Ki for mu opioid receptor in mouse cerebellum to Ki for kappa opioid receptor in guinea pig cerebellum; type: tissue-based
[4] = Selectivity ratio of Ki for delta opioid receptor in mouse cerebellum to Ki for kappa opioid receptor in guinea pig cerebellum; type: tissue-based

Delta-type opioid receptor, sequence (P32300 whole entry): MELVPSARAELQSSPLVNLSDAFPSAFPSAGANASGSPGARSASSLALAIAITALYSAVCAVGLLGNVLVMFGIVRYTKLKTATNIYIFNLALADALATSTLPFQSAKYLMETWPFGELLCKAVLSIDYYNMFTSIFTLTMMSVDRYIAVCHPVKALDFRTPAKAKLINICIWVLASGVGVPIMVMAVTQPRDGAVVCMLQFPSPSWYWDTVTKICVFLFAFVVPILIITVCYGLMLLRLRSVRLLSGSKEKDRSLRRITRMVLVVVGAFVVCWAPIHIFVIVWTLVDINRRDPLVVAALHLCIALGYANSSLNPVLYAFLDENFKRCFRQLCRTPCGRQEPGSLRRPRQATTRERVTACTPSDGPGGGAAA
Kappa-type opioid receptor, sequence (P41144 whole entry): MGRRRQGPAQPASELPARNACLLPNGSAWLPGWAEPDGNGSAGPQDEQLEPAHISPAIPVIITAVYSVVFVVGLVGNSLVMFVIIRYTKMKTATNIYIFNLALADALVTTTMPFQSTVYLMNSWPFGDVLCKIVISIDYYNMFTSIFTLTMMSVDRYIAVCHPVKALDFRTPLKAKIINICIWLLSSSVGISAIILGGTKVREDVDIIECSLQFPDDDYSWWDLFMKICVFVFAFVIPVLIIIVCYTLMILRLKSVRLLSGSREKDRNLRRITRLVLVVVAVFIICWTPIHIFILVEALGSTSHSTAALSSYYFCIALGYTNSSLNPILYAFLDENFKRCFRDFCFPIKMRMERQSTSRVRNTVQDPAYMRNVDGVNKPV
Mu-type opioid receptor, sequence (P42866 whole entry): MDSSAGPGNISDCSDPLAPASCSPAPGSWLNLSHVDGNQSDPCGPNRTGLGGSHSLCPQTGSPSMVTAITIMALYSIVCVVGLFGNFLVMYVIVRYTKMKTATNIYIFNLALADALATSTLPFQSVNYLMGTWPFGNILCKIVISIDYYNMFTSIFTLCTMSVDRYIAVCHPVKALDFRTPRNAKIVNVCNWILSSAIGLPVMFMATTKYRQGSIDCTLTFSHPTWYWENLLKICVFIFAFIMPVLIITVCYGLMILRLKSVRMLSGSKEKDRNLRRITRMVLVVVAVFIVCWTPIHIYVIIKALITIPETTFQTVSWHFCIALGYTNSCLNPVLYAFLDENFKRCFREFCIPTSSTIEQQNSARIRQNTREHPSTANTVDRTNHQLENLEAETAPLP

Structure (SMILES) | pKi (Mu-type opioid receptor) | pKi [1] | pKi [2] | Ratio Ki [3] | Ratio Ki [4]
CN[C@@H]1CC[C@@]2(O)[C@H]3CC4=C(CCCC4)[C@@]2(CCN3CC2CC2)C1 | < 6.00 | < 6.00 | 6.45 | – | –
O=C1CC[C@@]2(O)[C@H]3CC4=C(CCCC4)[C@@]2(CCN3CC2CC2)C1 | 6.41 | 6.03 | 6.10 | 0.5 | 1.19
CN(C(=O)/C=C/c1ccoc1)[C@@H]1CC[C@@]2(O)[C@H]3Cc4cccc5c4[C@@]2(CCN3CC2CC2)[C@H]1O5 | 6.77 | < 6.00 | 8.55 | 59.8 | –
CN(C(=O)/C=C/c1ccoc1)[C@@H]1CC[C@@]2(O)[C@H]3Cc4ccc(O)cc4[C@@]2(CCN3CC2CC2)C1 | 9.37 | 8.68 | 9.74 | 2.42 | 11.8
CN(C(=O)/C=C/c1ccoc1)[C@@H]1CC[C@@]2(O)[C@H]3CC4=C(CCCC4)[C@@]2(CCN3CC2CC2)C1 | 7.08 | 6.51 | 8.25 | 14.7 | 54.5
CN(C(=O)/C=C/c1ccoc1)[C@@H]1CC[C@H]2CN(CC3CC3)CC[C@@H]2C1 | < 4.00 | < 4.00 | 4.72 | – | –
CN(C(=O)/C=C/c1ccoc1)[C@@H]1CC[C@H]2[C@H]3Cc4ccc(O)c5c4[C@@]2(CCN3CC2CC2)[C@H]1O5 | 9.29 | 8.05 | 9.46 | 1.47 | 25.3
CN(C(=O)/C=C/c1ccoc1)[C@@H]1CC[C@H]2[C@H]3CC4=C(CCCC4)[C@@]2(CCN3CC2CC2)C1 | 7.61 | 6.69 | 7.90 | 1.94 | 16.1

— ChEMBL document CHEMBL2057184, “Essential structure of opioid κ receptor agonist nalfurafine for binding to the κ receptor 2: synthesis of decahydro(iminoethano)phenanthrene derivatives and their pharmacologies” (Bioorg Med Chem Lett, 2012)
